# Reference: patent US8703698B2, “Compositions and methods for treating atherosclerosis” (The University of Chicago, priority 2003, dated 2014)
# Where no end group is shown, it is not given here. [ ]: non-standard residue; d: D form.
# Key:
# J774 macrophages = test: [3H]cholesterol efflux from cholesterol-loaded J774 macrophages in tissue culture; assay type: cell-based, mouse; conditions: for cholesterol export enhancing activity, time course (FIG. 9) / cholesterol export enhancing activity relative to the human SAA1.1 78-96 containing liposomal formulation (FIG. 9): liposomal formulations, mouse J774 cells; for rate of [3H]cholesterol efflux into medium containing HDL: pre-incubation with liposomes containing 0.5 μM peptide, HDL as acceptor
# [1] = tested on: [3H]-cholesterol-loaded J774 macrophages; test: In vivo cholesterol efflux to plasma in mice injected with [3H]-cholesterol-loaded J774 macrophages
# Method: In these experiments, in vivo cholesterol export was determined in mice injected with J774 macrophages cholesterol-loaded with RBC membranes and [^3H]-cholesterol. Two hundred thousand macrophages in 100:1 PBS were injected into each mouse through the tail vein. At various time points thereafter, approximately 25:1 of blood were collected from the tail vein of each animal into heparinized capillary tubes. The tubes were then centrifuged for 5 minutes in an Adams Autocrit Centrifuge to separate red blood cells from plasma. Cholesterol efflux was determined by measuring the appearance of [^3H]-cholesterol in plasma by scintillation spectrometry. To study whether export of cholesterol from J774 cells to plasma was influenced by non-liposome formulated D-27mer peptide (SEQ ID NO:10), 24 hours after injection of cholesterol-loaded J774 macrophages into mice, the same animals received, by intravenous injection, 30 μg, 60 μg, 150 μg, 225 μg, 300 μg or 600 μg of D-27mer. All these amounts of D-peptides were dissolved in 100:l of phosphate buffered saline and injected through the tail vein of each animal.
# Additional in vivo studies have also been conducted wherein mice were first injected intravenously with [^3H]cholesterol-laden macrophages and then injected 24 hours later with liposomes containing 0.5 μM of synthetic peptides corresponding to amino acid residues 1-20, 21-50, 51-80 or 74-103 of murine SAA2.1. Results from this study are depicted in FIG. 1. At time points indicated in the graph of FIG. 1, approximately 25 μl of blood were collected from the tail vein of each animal. The blood samples were centrifuged to separate the red blood cells from the plasma and the [^3H]-cholesterol in plasma was determined by scintillation counting. Results are mean±SEM of four determinations.
# To determine cholesterol export in vivo, J774 macrophages were cholesterol-loaded with red blood cell membranes and [^3H]-cholesterol as described above. Cells were washed four times with PBS/BSA and then detached from the culture dishes. Five million cells in 200 μl DMEM were injected into control mice or inflamed mice through the tail vein. At various time points, approximately 25 μl of blood were collected from the tail vein of each animal into heparinized capillary tubes and then centrifuged for 5 minutes in an Adams Autocrit Centrifuge to separate red blood cells from plasma. Cholesterol efflux was determined by measuring the appearance of [^3H]-cholesterol in plasma by scintillation spectrometry.
# J774 cells cultured in 6-well plates were enriched with cholesterol by incubating with red blood cell (RBC) membrane fragments (175:g as cholesterol) that had been previously labeled with 0.5:Ci/ml [^3H]-cholesterol at 37° C. for 24 hours in 0.2% bovine serum albumin (BSA). After loading with the labelled RBC membrane for 6 hours, cells were then washed with phosphate-buffered saline/BSA (PBS/BSA) three times followed by an 18 hour equilibration period during which monolayers were exposed to DMEM/BSA. To determine cholesterol export in vivo, J774 macrophages were cholesterol-loaded with RBC membranes and [^3H]-cholesterol as described previously above. Cells were washed four times with PBS/BSA and then detached from the culture dishes. Two hundred thousand cells in 100:l PBS were injected into mice through the tail vein. At various time points thereafter, approximately 25:l of blood were collected from the tail vein of each animal into heparinized capillary tubes. These tubes were then centrifuged for 5 minutes in an Adams Autocrit Centrifuge to separate red blood cells from plasma. Cholesterol efflux was determined by measuring the appearance of [^3H]-cholesterol in plasma by scintillation spectrometry. […]
# [2] = tested on: cholesterol ester hydrolase; test: Rate of hydrolysis of cholesteryl ester in cholesterol-laden J774 cells (cholesterol ester hydrolase activity); assay type: cell-based, murine; conditions: liposomes containing 0.5 μl synthetic peptide; J774 cells; Sandoz 58-035 present
# Method: Identification of the domain of SAA2.1 that is responsible for enhancing cholesterol ester hydrolase activity was performed in J774 cells preloaded with radio-labeled cholesteryl esters. These experiments were performed in the presence of Sandoz 58-035, an inhibitor of acyl CoA:cholesterol acyl transferase activity, to prevent re-esterification of liberated cholesterol and [^14C]oleate. Incubations proceeded for times ranging from 0 to 24 hours, following which the remaining quantities of [^14C]-labeled cholesteryl oleate in cells were measured to determine the rate of hydrolysis of cholesteryl ester. […] However, an equivalent amount of liposomes containing the synthetic peptide corresponding to amino acid residues 74-103 of murine SAA2.1 caused a 3-fold increase in cholesterol ester hydrolase activity in these cholesterol-laden murine cells. Newly confluent J774 cells were labeled with [^14C]-oleate during cholesterol loading with red blood cell membranes as described above. Cells were then incubated for up to 24 hours with 2 mL of DMEM containing 5% LPDS and 50 μg/mL of either native HDL, SAA-HDL, liposomes containing 2 μmoles of apoA-1, SAA1.1 or 2.1, or liposomes containing 0.5:mol synthetic peptides corresponding to amino acid residues 1-20 (SEQ ID NO:1), 21-50 (SEQ ID NO:2), 51-80 (SEQ ID NO:3) and 74-103 (SEQ ID NO:4) of murine SAA2.1. To determine the rate of cholesteryl ester hydrolysis, 2 μg/mL of the acyl CoA:cholesterol acyl transferase inhibitor Sandoz 58-035 (propanimide, 3-(decyldimethylsilyl)-N-[2-(4-methylphenyl)-1-phenylethyl]-(9Cl) was added during incubation with lipoproteins or liposomes to prevent […] and free cholesterol. To examine whether or not the rate of cholesteryl ester hydrolysis involved the lysosomal cholesteryl ester hydrolase, the cells were cultured in the presence of 50 μg/mL of either native HDL and chloroquine or SAA-HDL and chloroquine (100:M). Chloroquine is an agent that neutralizes the lysosomal proton gradient. At various time points, cellular lipids were extracted and analyzed for cholesteryl ester radioactivity as described above.
# [3] = target: T1, acyl CoA:cholesterol acyl transferase (Mus musculus, UniProt Q61263); test: Incorporation of [14C]oleate into cholesteryl ester in cholesterol-laden macrophages (ACAT activity); assay type: cell-based, murine; conditions: liposomes containing 0.5 μM synthetic peptide; 6 hour incubation; cholesterol-laden murine cells
# T1 construct: host or cells: J774 mouse macrophages, cholesterol-loaded
# T1 sequence (Q61263 1-540): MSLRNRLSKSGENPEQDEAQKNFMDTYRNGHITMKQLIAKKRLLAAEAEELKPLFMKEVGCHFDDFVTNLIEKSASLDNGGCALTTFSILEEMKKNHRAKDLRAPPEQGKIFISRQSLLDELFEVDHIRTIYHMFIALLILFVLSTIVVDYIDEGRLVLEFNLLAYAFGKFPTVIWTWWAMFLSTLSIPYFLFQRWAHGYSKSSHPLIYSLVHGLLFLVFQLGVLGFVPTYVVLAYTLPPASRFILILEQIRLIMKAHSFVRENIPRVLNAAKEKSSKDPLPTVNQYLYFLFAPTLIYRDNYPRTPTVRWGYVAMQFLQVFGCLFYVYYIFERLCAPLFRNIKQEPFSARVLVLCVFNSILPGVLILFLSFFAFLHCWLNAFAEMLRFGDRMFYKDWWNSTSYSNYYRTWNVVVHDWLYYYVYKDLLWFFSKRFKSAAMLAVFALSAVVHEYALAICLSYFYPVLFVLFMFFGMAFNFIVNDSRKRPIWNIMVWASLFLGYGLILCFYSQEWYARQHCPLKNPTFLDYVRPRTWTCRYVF
# Method: The incorporation of [^14C]oleate into cholesteryl ester was used as a measure of acyl CoA:cholesterol acyl transferase activity to identify compositions inhibiting the enzyme activity. The relative acyl CoA:cholesterol acyl transferase activity was determined in cholesterol-laden murine cells that had been cultured in medium in the absence of liposomes or in the presence of protein-free liposomes or liposomes containing 0.5 μM synthetic peptides corresponding to amino acids 1-20, 21-50, 51-80 and 74-103 of murine SAA2.1.
# To load the cells with cholesterol, nearly confluent mono-layers were washed 3 times with phosphate buffered saline containing 2 mg/mL fatty acid-free bovine serum albumin (PBS-BSA) and incubated for 5 hours in DMEM supplemented with 5% lipoprotein-depleted serum (LPDS) (d>1.25 g/mL) and 175 μg of red blood cell membrane cholesterol. For the purpose of pool equilibration of added cholesterol, cell cultures were rinsed twice with PBS-BSA and incubated overnight in DMEM containing 5% LPDS. The relative activity of acyl CoA:cholesterol acyl transferase was determined in cholesterol-laden cells that had been cultured in medium containing no liposomes, protein-free liposomes or liposomes containing 0.5:M synthetic peptides corresponding to amino acid residues 1-20 (SEQ ID NO:1), 21-50 (SEQ ID NO:2), 51-80 (SEQ ID NO:3) or 74-103 (SEQ ID NO:4) of murine SAA2.1, respectively. Following 3 hours incubation with the above media, [^14C]-oleate was added and the cells were incubated for another 3 hour period (Mendez et al. J. Clin. Invest. 1994 94:1698-1705; Oram et al. Arterioscler. Thromb. 1991 11:403-414). Cells were chilled on ice and washed twice with PBS-BSA and twice with PBS. After addition of [^3H]-cholesteryl oleate (6000 dpm/well) as an internal standard, the lipids were extracted from the labeled cells and analyzed by thin-layer chromatography as described by Mendez et al. (J. Clin. Invest. 1994 94:1698-1705) and Oram et al. (Arterioscler. Thromb. 1991 11:403-414). The radioactivity in appropriate spots was measured to determine the incorporation of radioactivity into cholesteryl esters as a measure of acyl CoA:cholesterol acyl transferase activity.
sequence,measurement,setting,value
"AANKWGRSGRDPNHFR [SEQ ID NO:28, residues 81-96 of human SAA2.1]","cholesterol export enhancing activity, time course (FIG. 9)",J774 macrophages,little to no cholesterol export enhancing activity
"ADQAANKWGRSGRDPNHFR [SEQ ID NO:11, residues 78-96 of human SAA2.1]",cholesterol export enhancing activity relative to the human SAA1.1 78-96 containing liposomal formulation (FIG. 9),J774 macrophages,about half
"ADQEANRHGRSGKDPNYYRPPGLPAKY [SEQ ID NO:10] ([dA][dD][dQ][dE][dA][dN][dR][dH]G[dR][dS]G[dK][dD][dP][dN][dY][dY][dR][dP][dP]G[dL][dP][dA][dK][dY]) [residues 77-103 of murine SAA1.1, all D-amino acids]",duration of increase in cholesterol efflux (FIG. 12),[1]; following oral and intravenous administration,at least 4 days
same,radiolabeled cholesterol exported in the plasma (FIG. 15),"[1]; non-liposome formulated, in 100 μl PBS, intravenous, 15 μg/mouse peptide or 75 μg/mouse full length protein",caused an increase in cholesterol exported in the plasma
same,[3H]-cholesterol efflux as plasma radioactivity (dpm) (FIG. 11),"[1]; non-liposome formulated, in PBS, intravenous, 30 to 600 μg per mouse",dose-dependent increase
same,efficacy on oral administration to fasted animals versus animals receiving food (FIG. 16),"[1]; non-liposome formulated, oral, 300 μg",further enhanced
same,"cholesterol exported to the plasma at 24 hours, PBS containing 5% weight/volume glucose versus PBS (FIG. 13)","[1]; non-liposome formulated, oral, same dose",higher
same,efficacy with smaller volume vehicle containing the same amount of peptide (FIG. 16),"[1]; oral, 300 μg in 100 μl versus 500 μl PBS, fasted and fed mice",efficacy was enhanced
"DQAANKWGRSGRDPNHFR [SEQ ID NO:26, residues 79-96 of human SAA2.1]",cholesterol export enhancing activity relative to the human SAA1.1 78-96 containing liposomal formulation (FIG. 9),J774 macrophages,about half
"QAANKWGRSGRDPNHFR [SEQ ID NO:27, residues 80-96 of human SAA2.1]","cholesterol export enhancing activity, time course (FIG. 9)",J774 macrophages,little to no cholesterol export enhancing activity
"RSFFSFLGEAFDGARDMWRAYSD [SEQ ID NO:6, synthetic peptide, residues 1-23 of human SAA1.1 and/or SAA2.1]",[3H]-cholesterol efflux as plasma radioactivity (dpm) (FIG. 1),"[1]; intravenous liposomes containing 0.5 μM peptide, 24 hours after macrophages",promoted in vivo cholesterol export
"TDMKEANWKNSDKYFHARGNYDAAQRGPGG [SEQ ID NO:2, synthetic peptide, residues 21-50 of murine SAA2.1]",rate of hydrolysis of [14C]-labeled cholesteryl oleate versus protein-free liposomes,[2],no significant differences
same,rate of [3H]cholesterol efflux into medium containing HDL,J774 macrophages,did not cause any significant changes
same,relative acyl CoA:cholesterol acyl transferase activity,[3],no significant effect
"VWAAEKISDGREAFQEFFGRGHEDTIADQE [SEQ ID NO:3, synthetic peptide, residues 51-80 of murine SAA2.1]",rate of hydrolysis of [14C]-labeled cholesteryl oleate versus protein-free liposomes,[2],no significant differences
same,rate of [3H]cholesterol efflux into medium containing HDL,J774 macrophages,did not cause any significant changes
same,relative acyl CoA:cholesterol acyl transferase activity,[3],no significant effect
